{"source": "patent US9828623B2", "about": "(priority 2014, dated 2017)", "data": [{"test_system": "cDNA probe", "settings": "pH 7.5", "units": {"event mean residence time": "ms"}, "values": [{"substance": "5′-GGATTATTGTGAAATATTGA-3′ [aLF-1]", "event mean residence time": "342 ± 35"}, {"substance": "TTTTTTTTTTTTTTTTTTTT [T20]", "event mean residence time": "0.12 ± 0.01"}, {"substance": "5′-GGATTATGGTGAAATATTGA-3′ [aLF-2]", "event mean residence time": "57.4 ± 2.5"}, {"substance": "AAAAAAAAAAAAAAAAAAAA [A20]", "event mean residence time": "11.7 ± 0.2"}]}]}
